# Results taken from PubChem BioAssay AID1208 (EPA DSSTox, 2008).
# “And” between values parts separate entries of the source, which are not always exact repeats. Equal entries are not always repeated. The source made the active and inactive calls.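 The calls were made as follows: active = at least one rat sex group has a carcinogenic potency value and tumor site recorded; inconclusive = only rat studies were judged inadequate by the national testing program; inactive = no potency or tumor site, with negative rat experiments.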
# System: rat chronic carcinogenicity bioassay, TD50
# Assay: DSSTox (CPDBAS) Carcinogenic Potency Database Summary Rat Bioassay Results
# Conditions: for outcome: TD50_Rat_Note: no positive results; for Potency: active compounds read low
# Summary of the method: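 Chronic long-term rat cancer bioassays from literature and NCI/NTP, taking the most positive result per sex. TD50 in mmol converted to a 1–100 Activity Score from log10(1/TD50). Mixtures lacking TD50 scored 50.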
# [1] = TargetSites_Rat_Female: no positive results
# [2] = TD50_Rat_Note: TD50 is harmonic mean of more than one positive test, TargetSites_Rat_Female: liver
# [3] = TD50_Rat_Note: TD50 is harmonic mean of more than one positive test, TargetSites_Rat_Female: stomach
# [4] = TargetSites_Rat_BothSexes: no positive results
structure (smiles),measurement,setting,value
NCCCC(N)(C(=O)O)C(F)F (stereo not drawn),outcome,[1],inactive; no positive results
OCCOCCOCCO,outcome,,inactive; no positive results
Cc1ccc([N+](=O)[O-])cc1N,outcome,[1],inactive; no positive results
ClC(Cl)C(Cl)Cl,outcome,[1],inactive; no positive results
O=NN1CCC(=O)NC1=O,Potency,[2],0.0983 mg/kg/day
Cc1ccccc1[N+](=O)[O-],Potency,"TD50_Rat_Note: TD50 is harmonic mean of more than one positive test, greater than ten-fold variation among TD50 values for positive res, TargetSites_Rat_Female: liver, mammary gland, subcutaneous tissue",4.66 mg/kg/day
Oc1ccc2ccccc2c1N=Nc1ccccc1,Potency,[2],29.4 mg/kg/day
O=S(=O)([O-])[O-].[Cd+2],Potency,"TD50_Rat_Note: TD50 is harmonic mean of more than one positive test, TargetSites_Rat_Female: lung",0.0217 mg/kg/day
CNC[C@H](O)c1cccc(O)c1,outcome,[1],inactive; no positive results
c1ccccc1,Potency,"TD50_Rat_Note: TD50 is harmonic mean of more than one positive test, TargetSites_Rat_Female: ear Zymbals gland, nasal cavity, oral cavity, stomach, vascular system",169 mg/kg/day
CC1(C)[C@H](C(=O)O[C@H](C#N)c2cccc(Oc3ccccc3)c2)[C@@H]1C=C(Br)Br,outcome,[1],inactive; no positive results
Cc1ccc(N)cc1Cl,outcome,[1],inactive; no positive results
CN1CCC[C@H]1c1cccnc1,outcome,[1],inactive; no positive results
C[C@@H]1O[C@@]2(CS1)CN1CCC2CC1,outcome,[1],inactive; no positive results
CCCCCCCN,outcome,,inactive; no positive results
NC(N)=NC(N)=NCCc1ccccc1,outcome,[1],inactive; no positive results
BrC(Br)Br,Potency,"TD50_Rat_Note: TD50 is harmonic mean of more than one positive test, TargetSites_Rat_Female: large intestine",648 mg/kg/day
O=C(O)CN(CC(=O)O)CC(=O)O,Potency,"TD50_Rat_Note: TD50 is harmonic mean of more than one positive test, TargetSites_Rat_Female: kidney, urinary bladder",1770 mg/kg/day and 370 mg/kg/day
O=C1NC(=O)C(c2ccccc2)(c2ccccc2)N1,outcome,[1],inactive; no positive results
C/C=C/C=O,Potency,,4.2 mg/kg/day
CCCc1ccc2c(c1)OCO2,Potency,TargetSites_Rat_BothSexes: esophagus,143 mg/kg/day
N#Cc1ccc(C2CCCc3cncn32)cc1 (stereo not drawn),outcome,[1],inactive; no positive results
COC(=O)C1=CCCN(N=O)C1,outcome,,inactive; no positive results
COc1cc(/C=C/C(=O)OCCc2ccccc2)ccc1O,outcome,,inactive; no positive results
C=CCc1ccc(O)c(OC)c1,outcome,[1],inactive; no positive results
C1CCOC1,Potency,[1],407 mg/kg/day
O=[N+]([O-])c1ccccc1,Potency,"TD50_Rat_Note: TD50 is harmonic mean of more than one positive test, TargetSites_Rat_Female: liver, uterus",25.5 mg/kg/day
CC(CN1c2ccccc2Sc2ccccc21)N(C)C (stereo not drawn),outcome,[1],inactive; no positive results
Cc1ccccc1,Potency,"TD50_Rat_Note: TD50 is harmonic mean of more than one positive test, TargetSites_Rat_Female: Maltoni head cancers",3060 mg/kg/day
COc1ccc2c3c1O[C@H]1[C@@H](O)C=C[C@H]4[C@@H](C2)N(C)CC[C@@]341,outcome,[1],inactive; no positive results
CCCCCCCCCCCCCCCC(=O)OC/C=C(C)/C=C/C=C(C)/C=C/C1=C(C)CCCC1(C)C,outcome,,inactive; no positive results
O=NN1CCSCC1,Potency,"TD50_Rat_Note: TD50 is harmonic mean of more than one positive test, TargetSites_Rat_Female: esophagus, oral cavity",5.39 mg/kg/day
O=C(Nc1ccc2c(c1)Cc1ccccc1-2)C(F)(F)F,Potency,"TargetSites_Rat_Female: ear Zymbals gland, liver, mammary gland",1.62 mg/kg/day
CCN(CC)CC#CC(C)(C)OC(=O)C(O)(c1ccccc1)C1CCCCC1 (stereo not drawn),outcome,[1],inactive; no positive results
O=C1CCC(=O)O1,outcome,[1],inactive; no positive results
NC1CCCCC1,outcome,[1],inactive; no positive results
CC/C(C)=N/O,Potency,[1],74.5 mg/kg/day
O=C1CCCCCN1,outcome,[1],inactive; no positive results
O=[N+]([O-])c1ccc2ccc3cccc4ccc1c2c34,Potency,"TargetSites_Rat_Female: clitoral gland, hematopoietic system, mammary gland",3.33 mg/kg/day
COc1cc2c(cc1N)oc1ccccc12,Potency,"TD50_Rat_Note: TD50 is harmonic mean of more than one positive test, harmonic mean of TD50 includes a value for upper 99% confidence li, TargetSites_Rat_Female: ear Zymbals gland, mammary gland, urinary bladder",29 mg/kg/day
COc1cc2c(c3oc(=O)c4c(c13)CCOC4=O)C1C=COC1O2 (stereo not drawn),Potency,"TD50_Rat_Note: TD50 is harmonic mean of more than one positive test, TD50_Rat_mmol was not calculated for this mixture, but Activiity S",0.00299 mg/kg/day
Nc1cc([N+](=O)[O-])ccc1O,Potency,[1],839 mg/kg/day
NC(N)=S,Potency,"TD50_Rat_Note: TD50 is harmonic mean of more than one positive test, TargetSites_Rat_Female: no positive results",98.5 mg/kg/day
ClC(Cl)Cl,Potency,[2],262 mg/kg/day
C=CCOc1ccc(CC(=O)O)cc1Cl,outcome,[1],inactive; no positive results
O=c1ccc2ccccc2o1,Potency,"TD50_Rat_Note: TD50 is harmonic mean of more than one positive test, greater than ten-fold variation among TD50 values for positive res, TargetSites_Rat_Female: liver",39.2 mg/kg/day
COc1c(Cl)c(Cl)c(Cl)c(Cl)c1Cl,Potency,[1],24.8 mg/kg/day
COc1cc(/C=C/C(=O)CC(=O)/C=C/c2ccc(O)c(OC)c2)ccc1O,outcome,,inactive; no positive results
same,outcome,[1],inactive; no positive results
[O-]/[N+](=N\O)c1ccccc1,Potency,"TD50_Rat_Note: TD50 is harmonic mean of more than one positive test, TargetSites_Rat_Female: ear Zymbals gland, liver, stomach, vascular system",8.35 mg/kg/day
CCCCC(CC)COP(=O)(OCC(CC)CCCC)OCC(CC)CCCC (stereo not drawn),outcome,[1],inactive; no positive results
FC(Cl)(Cl)Cl,outcome,[1],inactive; no positive results
Oc1ccc(O)cc1,Potency,"TD50_Rat_Note: TD50 is harmonic mean of more than one positive test, TargetSites_Rat_Female: hematopoietic system",82.8 mg/kg/day
COc1ccc(O)cc1,Potency,[3],658 mg/kg/day
Cc1ccc(/C(=C\CN2CCCC2)c2ccccn2)cc1,outcome,[1],inactive; no positive results
O=P(OCC(Br)CBr)(OCC(Br)CBr)OCC(Br)CBr (stereo not drawn),Potency,"TD50_Rat_Note: TD50 is harmonic mean of more than one positive test, TargetSites_Rat_Female: kidney",3.83 mg/kg/day
C=Cc1cccc[n+]1[O-],outcome,[1],inactive
O=C(O)COc1cc(Cl)c(Cl)cc1Cl,outcome,[1],inactive; no positive results
CC(C)(C)NCC(O)c1ccc(O)c(CO)c1 (stereo not drawn),Potency,"TD50_Rat_Note: TD50 is harmonic mean of more than one positive test, TargetSites_Rat_Female: mesovarium",40 mg/kg/day
C/C=C1/C[C@@H](C)[C@](O)(CO)C(=O)OCC2=CC[N+]3([O-])CC[C@@H](OC1=O)[C@@H]23 (stereo partly drawn),Potency,[2],0.716 mg/kg/day
CO[C@@]12[C@H](COC(N)=O)C3=C(C(=O)C(C)=C(N)C3=O)N1C[C@@H]1N[C@@H]12,Potency,"TD50_Rat_Note: positive test results only by intraperitoneal or intravenous injection, TD50 is harmonic mean of more than one positive, TargetSites_Rat_Female: peritoneal cavity",0.00102 mg/kg/day
Cc1ccc(S(=O)(=O)OCCN(C)N=O)cc1,Potency,"TD50_Rat_Note: TD50 is harmonic mean of more than one positive test, TargetSites_Rat_Female: liver, vascular system",4.8 mg/kg/day
[O]=[Mo](=[O])=[O],outcome,[1],inactive; no positive results
COC1[C@@H](O[C@@H]2O[C@H](C)[C@@H](O[C@H]3C[C@@](C)(O)[C@H](OC(=O)CC(C)C)[C@H](C)O3)[C@H](N(C)C)[C@H]2O)[C@@H](CC=O)C[C@@H](C)[C@@H](O)/C=C/C=C/C[C@@H](C)OC(=O)C[C@H]1OC(C)=O (stereo partly drawn),outcome,[1],inactive; no positive results
Cn1cnc2nc(N)[nH]c(=O)c21,outcome,[4],inactive
C1COCCO1,Potency,"TD50_Rat_Note: TD50 is harmonic mean of more than one positive test, greater than ten-fold variation among TD50 values for positive res, TargetSites_Rat_Female: liver, mammary gland, nasal cavity",267 mg/kg/day
CCCCCCCCCCC(C)c1ccc(S(=O)(=O)O)cc1 (stereo not drawn),outcome,[1],inactive; no positive results
O=C1C(O)N=C(c2ccccc2F)c2cc(Cl)ccc2N1CCO (stereo not drawn),outcome,[1],inactive; no positive results
CCCCCCc1ccc(O)cc1O,outcome,[1],inactive; no positive results
COc1ccccc1[N+](=O)[O-],Potency,"TD50_Rat_Note: TD50 is harmonic mean of more than one positive test, greater than ten-fold variation among TD50 values for positive res, TargetSites_Rat_Female: hematopoietic system, kidney, large intestine, urinary bladder",15.6 mg/kg/day
O=C/C=C/c1ccccc1,outcome,[1],inactive; no positive results
Nc1nc(-c2ccc([N+](=O)[O-])o2)cs1,Potency,"TargetSites_Rat_Female: stomach, urinary bladder",5.85 mg/kg/day
O=C1C(c2[nH]c3ccc(S(=O)(=O)O)cc3c2O)=Nc2ccc(S(=O)(=O)O)cc21,outcome,[4],inactive
COc1cc(NC(=O)C(N=Nc2ccc(-c3ccc(N=NC(C(C)=O)C(=O)Nc4cc(OC)c(Cl)cc4OC)c(Cl)c3)cc2Cl)C(C)=O)c(OC)cc1Cl (stereo not drawn),outcome,[4],inactive
Nc1nc(N)nc(N)n1,Potency,[1],735 mg/kg/day
CC(=O)Nc1nnc(-c2ccc([N+](=O)[O-])o2)s1,Potency,"TargetSites_Rat_Female: hematopoietic system, kidney, lung, small intestine, stomach, vascular system",8.84 mg/kg/day
CN(N=O)C(=O)N[C@@H]1[C@@H](O)[C@H](O)[C@@H](CO)O[C@@H]1O,Potency,"TD50_Rat_Note: positive test results only by intraperitoneal or intravenous injection, TD50 is harmonic mean of more than one positive, TargetSites_Rat_Female: kidney",0.963 mg/kg/day
[Cd+2].[Cl-].[Cl-],Potency,"TD50_Rat_Note: TD50 is harmonic mean of more than one positive test, greater than ten-fold variation among TD50 values for positive res, TargetSites_Rat_Female: lung",0.0136 mg/kg/day
ClCc1cccnc1,Potency,[1],433 mg/kg/day
Cn1c(=O)c2c(ncn2C)n(C)c1=O,outcome,[1],inactive; no positive results
CCN=[N+](C)[O-],Potency,,11.5 mg/kg/day
CCCCCCCCCc1ccc(OCCOCCO)cc1,outcome,[1],inactive
C=CC(OCC)OCC,outcome,[1],inactive; no positive results
COc1ccc(C(=O)/C(Br)=C\C(=O)O)cc1,Potency,"TD50_Rat_Note: positive test results only by intraperitoneal or intravenous injection, TD50 is harmonic mean of more than one positive, TargetSites_Rat_Female: mammary gland",2.77 mg/kg/day
COc1cc(OC)c2c3c(c(=O)oc2c1)CCC3=O,outcome,,inactive; no positive results
ClCC1CO1 (stereo not drawn),Potency,[3],2.96 mg/kg/day
ClCCCl,Potency,"TD50_Rat_Note: TD50 is harmonic mean of more than one positive test, greater than ten-fold variation among TD50 values for positive res, TargetSites_Rat_Female: mammary gland, subcutaneous tissue",14.6 mg/kg/day
Cc1ccc(N)cc1,outcome,,inactive; no positive results
